The values below are quoted from earlier work in patent publication US20150196708A1, “SYSTEMS, METHODS AND COMPOSITIONS FOR IMPROVED TREATMENT OF ACIDOSIS” (The Regents of the University of California, priority 2012, published 2015).

Each structure is given as a SMILES string.

The test system of one data set is patients with acidosis. The settings on record: literature (Cooper et al., 1990; Leung et al., 1994).
The conditions of data set [1]: room temperature; incorporates CO2(aq)/H2CO3(aq) equilibrium.

`O=C([O-])O.[Na+]` [bicarbonate, sodium bicarbonate]: the “clinical benefit in human studies” value in the data set on patients with acidosis is listed as “no more beneficial effect than the administration of similar quantities of sodium chloride”.

For the compound `O=C(O)O` [carbonic acid], the “Ka1 (deprotonation)” value in data set [1] is given as 4.3×10^−7.
